In ChEMBL document CHEMBL1147464, “Synthesis and SAR of bis-statine based peptides as BACE 1 inhibitors” (Bioorg Med Chem Lett, 2004):
pIC50: −log10 of the molar value.

Target: Beta-secretase 1 (Homo sapiens, UniProt P56817)
Experiment: Inhibition of human Beta-secretase 1

Chain of Beta-secretase 1 (P56817 whole entry): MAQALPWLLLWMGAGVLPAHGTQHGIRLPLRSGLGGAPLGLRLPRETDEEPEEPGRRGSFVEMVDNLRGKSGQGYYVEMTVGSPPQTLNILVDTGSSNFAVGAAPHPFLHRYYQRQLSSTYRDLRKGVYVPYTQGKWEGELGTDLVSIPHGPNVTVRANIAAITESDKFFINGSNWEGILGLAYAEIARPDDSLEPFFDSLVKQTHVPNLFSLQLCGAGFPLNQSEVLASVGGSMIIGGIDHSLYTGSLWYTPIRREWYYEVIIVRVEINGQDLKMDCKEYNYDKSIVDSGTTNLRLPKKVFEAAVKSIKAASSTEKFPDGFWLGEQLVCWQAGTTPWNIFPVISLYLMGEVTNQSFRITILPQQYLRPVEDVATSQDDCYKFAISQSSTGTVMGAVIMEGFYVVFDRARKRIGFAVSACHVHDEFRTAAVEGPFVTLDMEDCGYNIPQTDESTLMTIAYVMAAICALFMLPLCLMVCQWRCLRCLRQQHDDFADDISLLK

| SMILES | pIC50 |
| --- | --- |
| CC(C)[C@H](NC(=O)C[C@H](O)[C@H](CC1CCCCC1)NC(=O)C[C@H](O)[C@H](Cc1ccccc1)NC(=O)OC(C)(C)C)C(=O)NCc1ccc(C(=O)O)cc1 | < 4.00 |
| CCC(C)C[C@H](NC(=O)[C@H](CC(C)C)NC(C)=O)[C@@H](O)CC(=O)NC(CC[S+](C)[O-])[C@@H](O)CC(=O)N[C@H](C(=O)NCc1ccc(C(=O)O)cc1)C(C)C (some centres not stated) | 4.47 |
| CC(=O)N[C@@H](CCC(=O)O)C(=O)N[C@@H](Cc1ccccc1)[C@@H](O)CC(=O)N[C@@H](CC1CCCCC1)[C@@H](O)CC(=O)N[C@H](C(=O)NCc1ccc(C(=O)O)cc1)C(C)C | 4.38 |
| CC(=O)NCC(=O)N[C@@H](Cc1ccccc1)[C@@H](O)CC(=O)N[C@@H](CC1CCCCC1)[C@@H](O)CC(=O)N[C@H](C(=O)NCc1ccc(C(=O)O)cc1)C(C)C | 5.05 |
| CC(C)[C@H](NC(=O)C[C@H](O)[C@H](CC1CCCCC1)NC(=O)C[C@H](O)[C@@H](N)Cc1ccccc1)C(=O)NCc1ccc(C(=O)O)cc1 | < 4.00 |
| CC(=O)N[C@@H](Cc1ccccc1)C(=O)N[C@@H](Cc1ccccc1)[C@@H](O)CC(=O)N[C@@H](CC1CCCCC1)[C@@H](O)CC(=O)N[C@H](C(=O)NCc1ccc(C(=O)O)cc1)C(C)C | 5.25 |
| CC(C)[C@H](NC(=O)C[C@H](O)[C@H](CC1CCCCC1)NC(=O)C[C@H](O)[C@H](Cc1ccccc1)NC(=O)[C@@H]1CCCN1)C(=O)NCc1ccc(C(=O)O)cc1 | 5.89 |

The next compounds have a higher pIC50 than those just listed; values first:

| pIC50 | SMILES |
| --- | --- |
| 6.17 | CC(=O)N[C@@H](CC(C)C)C(=O)N[C@@H](Cc1ccccc1)[C@@H](O)CC(=O)N[C@@H](CC1CCCCC1)[C@@H](O)CC(=O)N[C@H](C(=O)NCc1ccc(C(=O)O)cc1)C(C)C (stereo in doubt; 15) |
| 6.19 | CCC(C)C[C@H](NC(=O)C[C@H](O)[C@H](Cc1ccccc1)NC(=O)[C@H](CC(C)C)NC(C)=O)[C@@H](O)CC(=O)N[C@H](C(=O)NCc1ccc(C(=O)O)cc1)C(C)C (some centres not stated) |
| 6.34 | CCC(C)C[C@H](NC(=O)[C@H](CC(C)C)NC(C)=O)[C@@H](O)CC(=O)NC(CCSC)[C@@H](O)CC(=O)N[C@H](C(=O)NCc1ccc(C(=O)O)cc1)C(C)C (some centres not stated) |
| 7.30 | CC(=O)N[C@@H](CC(C)C)C(=O)N[C@@H](Cc1ccccc1)[C@@H](O)CC(=O)N[C@@H](CC1CCCCC1)[C@@H](O)CC(=O)N[C@H](C(=O)NCc1ccc(C(=O)O)cc1)C(C)C (stereo in doubt; 13) |
| 7.68 | CCC(C)C[C@H](NC(=O)[C@H](CC(C)C)NC(C)=O)[C@@H](O)CC(=O)N[C@@H](Cc1ccccc1)[C@@H](O)CC(=O)N[C@H](C(=O)NCc1ccc(C(=O)O)cc1)C(C)C (some centres not stated) |
